Test results published in ChEMBL document CHEMBL1697821, “Development of a phospholipidosis database and predictive quantitative structure-activity relationship (QSAR) models” (Toxicol Mech Methods, 2008).

System: Phospholipidosis
Experiment: Literature-mined public compounds from Kruhlak et al phospholipidosis modelling dataset

| SMILES | Phospholipidosis |
| --- | --- |
| C[N+](C)(C)CCOC(=O)CCC(=O)OCC[N+](C)(C)C [SUXAMETHONIUM] | Negative: based on the absence of positive reported data from WMDD |
| CCCCCCC(=O)OCCN1CCN(CCCN2c3ccccc3Sc3ccc(C(F)(F)F)cc32)CC1 [FLUPHENAZINE ENANTHATE] | Negative: based on the absence of positive reported data from WMDD |
| CCCN1C[C@H](CSC)C[C@@H]2c3cccc4[nH]cc(c34)C[C@H]21 [PERGOLIDE] | Negative: based on the absence of positive reported data from WMDD |
| NCCS [CYSTEAMINE] | Negative: based on the absence of positive reported data from WMDD |
| CN(C)[C@@H]1C(O)=C(C(N)=O)C(=O)[C@@]2(O)C(O)=C3C(=O)c4c(O)ccc(Cl)c4[C@@](C)(O)[C@H]3C[C@@H]12 [CHLORTETRACYCLINE] | Negative: confirmed by electron microscopy |
| COC1=CC(=O)C[C@@H](C)[C@]12Oc1c(Cl)c(OC)cc(OC)c1C2=O [GRISEOFULVIN] | Negative: based on the absence of positive reported data from WMDD |
| CS(=O)(=O)c1ccc([C@H](O)[C@@H](COC(=O)CN)NC(=O)C(Cl)Cl)cc1 [THIAMPHENICOL GLYCINATE] | Negative: based on the absence of positive reported data from WMDD |
| Nc1c(Br)cc(Br)cc1CN[C@H]1CC[C@H](O)CC1 [AMBROXOL] | Positive: weak inducer based on presence of foamy macrophages and cytoplasmic vacuolations |
| O=C(N[C@H](CO)[C@H](O)c1ccc([N+](=O)[O-])cc1)C(Cl)Cl [CHLORAMPHENICOL] | Positive: weak inducer based on presence of foamy macrophages and cytoplasmic vacuolations |
| C[C@H]1CCC[C@H](O)CCCCCc2cc(O)cc(O)c2C(=O)O1 [ZERANOL] | Negative: based on the absence of positive reported data from WMDD |
| CCN(CC)CCOc1ccc2c(c1)C(=O)c1cc(OCCN(CC)CC)ccc1-2 [TILORONE] | Positive: strong inducer confirmed by electron microscopy |
| CNC[C@H](O)c1ccc(O)c(O)c1 [EPINEPHRINE] | Negative: based on the absence of positive reported data from WMDD |
| Cc1ccc(/C(=C\CN2CCCC2)c2ccccn2)cc1 [TRIPROLIDINE] | Negative: based on the absence of positive reported data from WMDD |
| C[C@@H]1C/C=C/C=C/C=C/C=C/[C@H](O[C@@H]2O[C@H](C)[C@@H](O)[C@H](N)[C@@H]2O)C[C@@H]2O[C@](O)(C[C@@H](O)C[C@H]3O[C@@H]3/C=C/C(=O)O1)C[C@H](O)[C@H]2C(=O)O [NATAMYCIN] | Negative: based on the absence of positive reported data from WMDD |
| CCCN[C@@H]1[C@H](C)[C@@H](O)[C@](C)(O)[C@@H](CC)OC(=O)[C@H](C)[C@@H](O[C@H]2C[C@@](C)(OC)[C@@H](O)[C@H](C)O2)[C@H](C)[C@@H](O[C@@H]2O[C@H](C)C[C@H](N(C)C)[C@H]2O)[C@](C)(O)C[C@H]1C | Positive: weak inducer based on presence of foamy macrophages and cytoplasmic vacuolations |
| CCN(CC)CCSC(=O)C(c1ccccc1)c1ccccc1 | Negative: based on the absence of positive reported data from WMDD |
| CSc1ccc2c(c1)N(CCC1CCCCN1C)c1ccccc1S2 (configuration not stated) [THIORIDAZINE] | Positive: weak inducer based on presence of foamy macrophages and cytoplasmic vacuolations |
| [H]/N=C(/N)N[C@H]1[C@H](O)[C@@H](O)[C@H](O[C@@H]2O[C@@H](C)[C@](O)(C=O)[C@H]2O[C@@H]2O[C@@H](CO)[C@H](O)[C@@H](O)[C@@H]2NC)[C@@H](N/C(N)=N\[H])[C@@H]1O [STREPTOMYCIN] | Negative: based on the absence of positive reported data from WMDD |
| Cc1ncc2n1-c1ccc(Cl)cc1C(c1ccccc1F)=NC2 [MIDAZOLAM] | Negative: based on the absence of positive reported data from WMDD |

| SMILES | Phospholipidosis |
| --- | --- |
| CCOC(=O)[C@H](CCc1ccccc1)N[C@@H](C)C(=O)N1Cc2ccccc2C[C@H]1C(=O)O | Negative: based on the absence of positive reported data from WMDD |
| CC[N+](C)(C)Cc1ccccc1Br.Cc1ccc(S(=O)(=O)[O-])cc1 [BRETYLIUM TOSYLATE] | Negative: based on the absence of positive reported data from WMDD |
| CC(=O)[C@@]1(O)CC[C@H]2[C@@H]3C=C(Cl)C4=CC(=O)CC[C@]4(C)[C@H]3CC[C@@]21C [CHLORMADINONE] | Negative: based on the absence of positive reported data from WMDD |
| C1CNCCN1.C[C@]12CC[C@@H]3c4ccc(OS(=O)(=O)O)cc4CC[C@H]3[C@@H]1CCC2=O [ESTROPIPATE] | Negative: based on the absence of positive reported data from WMDD |
| CNCCCN1c2ccccc2CCc2ccccc21 [DESIPRAMINE] | Positive: weak inducer based on presence of foamy macrophages and cytoplasmic vacuolations |
| CN(C)CCOc1ccc(/C(=C(/CCCl)c2ccccc2)c2ccccc2)cc1 [TOREMIFENE] | Negative: based on the absence of positive reported data from WMDD |
| CC(C)=CCC1C(=O)N(c2ccccc2)N(c2ccccc2)C1=O [FEPRAZONE] | Negative: based on the absence of positive reported data from WMDD |
| CN(C)CCN(Cc1cccs1)c1ccccn1 | Negative: confirmed by electron microscopy |
| Cc1ncc([N+](=O)[O-])n1CCO [METRONIDAZOLE] | Negative: based on the absence of positive reported data from WMDD |
| COCCOc1cnc(NS(=O)(=O)c2ccccc2)nc1 [GLYMIDINE] | Negative: based on the absence of positive reported data from WMDD |
| CC1(C)OC[C@H]([C@@H](CS(=O)(=O)c2ccc(Oc3ccc(OC(F)(F)F)cc3)cc2)N(O)C=O)O1 | Negative: confirmed by electron microscopy |
| CC(CN(C)C)C(C)(O)Cc1ccc(Cl)cc1 (configuration not stated) [CLOBUTINOL] | Negative: based on the absence of positive reported data from WMDD |
| O=C(O)CCC(=O)O [SUCCINIC ACID] | Negative: based on the absence of positive reported data from WMDD |
| CN1C(=O)OC(C)(C)C1=O [TRIMETHADIONE] | Negative: based on the absence of positive reported data from WMDD |
| CN(C)CCC=C1c2ccccc2CCc2c(Cl)cccc21 | Positive: strong inducer confirmed by electron microscopy |
| CC(C)(O/N=C(\C(=O)N[C@@H]1C(=O)N2C(C(=O)[O-])=C(C[n+]3ccccc3)CS[C@H]12)c1csc(N)n1)C(=O)O [CEFTAZIDIME] | Negative: based on the absence of positive reported data from WMDD |
| NCC[C@H](O)C(=O)N[C@@H]1C[C@H](N)[C@@H](O[C@H]2O[C@H](CN)[C@@H](O)[C@H](O)[C@H]2O)[C@H](O)[C@H]1O[C@H]1O[C@H](CO)[C@@H](O)[C@H](N)[C@H]1O [AMIKACIN] | Positive: strong inducer confirmed by electron microscopy |
| CN1CCC2=C(C1)C(c1ccccc1)c1ccccc12 (configuration not stated) [PHENINDAMINE] | Negative: based on the absence of positive reported data from WMDD |
| C[C@H]1COc2c(N3CCN(C)CC3)c(F)cc3c(=O)c(C(=O)O)cn1c23.C[C@H]1COc2c(N3CCN(C)CC3)c(F)cc3c(=O)c(C(=O)O)cn1c23.O [LEVOFLOXACIN] | Negative: confirmed by electron microscopy |

| SMILES | Phospholipidosis |
| --- | --- |
| CN(C)CCOC(C)(c1ccccc1)c1ccccn1 (configuration not stated) [DOXYLAMINE] | Negative: based on the absence of positive reported data from WMDD |
| COc1cccc(C2(O)CCCCC2CN(C)C)c1 (configuration not stated) [TRAMADOL] | Negative: based on the absence of positive reported data from WMDD |
| CC(=O)Nc1c(I)cc(I)c(C(=O)O)c1I [ACETRIZOIC ACID] | Negative: based on the absence of positive reported data from WMDD |
| COc1cccc2c1C(=O)c1c(O)c3c(c(O)c1C2=O)C[C@@](O)(C(=O)CO)C[C@@H]3O[C@H]1C[C@H](N)[C@@H](O)[C@H](C)O1 [EPIRUBICIN] | Negative: based on the absence of positive reported data from WMDD |
| N=C(N)NCCN1CCCCCCC1 [GUANETHIDINE] | Negative: based on the absence of positive reported data from WMDD |
| CN(C)CCOC(c1ccc(Cl)cc1)c1ccccn1 (configuration not stated) [CARBINOXAMINE] | Negative: based on the absence of positive reported data from WMDD |
| CC[C@]1(O)CC[C@H]2[C@@H]3CCC4=CC(=O)CC[C@@H]4[C@H]3CC[C@@]21C [NORETHANDROLONE] | Negative: based on the absence of positive reported data from WMDD |
| O=S(=O)(O)c1ccc(/N=N/c2cc(CO)c(O)c(/N=N/c3ccc(S(=O)(=O)O)c4ccccc34)c2O)c2ccccc12 [BROWN HT] | Negative: based on the absence of positive reported data from WMDD |
| CCn1cc(C(=O)O)c(=O)c2ccc(C)nc21 [NALIDIXIC ACID] | Negative: based on the absence of positive reported data from WMDD |
| O=C1CN=C(c2ccccc2)c2cc([N+](=O)[O-])ccc2N1 [NITRAZEPAM] | Negative: based on the absence of positive reported data from WMDD |
| CC(C)COCC(CN(Cc1ccccc1)c1ccccc1)N1CCCC1 (configuration not stated) [BEPRIDIL] | Negative: based on the absence of positive reported data from WMDD |
| CC[C@H](OC(C)=O)C(C[C@H](C)N(C)C)(c1ccccc1)c1ccccc1 [LEVOMETHADYL ACETATE] | Negative: based on the absence of positive reported data from WMDD |
| CCCC(CCC)C(=O)O [VALPROIC ACID] | Negative: confirmed by electron microscopy |
| CCN(CC)CCn1nc2c3c(c(C)ccc31)Sc1cc(Cl)ccc1-2 | Positive: strong inducer confirmed by electron microscopy |
| O=c1cc[nH]c(=S)[nH]1 [THIOURACIL] | Negative: based on the absence of positive reported data from WMDD |
| CC(C)(N)CO [DEANOL] | Negative: based on the absence of positive reported data from WMDD |
| N=c1ccn2c(n1)O[C@H]1[C@H](O)[C@@H](CO)O[C@H]12 [ANCITABINE] | Negative: based on the absence of positive reported data from WMDD |
| NC(=O)c1ncn([C@@H]2O[C@H](CO)[C@@H](O)[C@H]2O)n1 [RIBAVIRIN] | Negative: based on the absence of positive reported data from WMDD |
| C[C@]12C=CC(=O)C=C1CC[C@@H]1[C@@H]2CC[C@@]2(C)[C@H]1CC[C@]2(C)O [METHANDROSTENOLONE] | Negative: based on the absence of positive reported data from WMDD |
